Laboratory results reported in US20210121380A1, “Amino Acid Containing Oral Care Composition for Treating Caries By Reducing Lactic Acid Release in Oral Biofilms” (3M INNOVATIVE PROPERTIES COMPANY, priority 2018, published 2021).
Each block holds one compound with its values, some of them ahead of it.

Key:
[1] = tested on: human saliva derived microcosm biofilm; test: Lactic acid release of biofilm grown in MCM human derived saliva biofilm system (LDH-NAD-PMS-MTT enzyme assay); type: cell-based, lactic acid producing bacteria (human derived saliva); conditions: for effectiveness for reducing the lactic-acid release of bacteria in a biofilm (in words): reduction by more than 40% vs control considered effective; for activity at 2.7 %: amino acid 2.7 wt. %
Experimental: (§1) A composition was prepared by dissolving the amino acid to be tested in de-ionized water in the given amount.
(§2) Biofilms were grown in a MCM (mucine containing medium plus 1% sucrose) human derived saliva biofilm system.
(§3) A general procedure is summarized below: • 1. Four-hour incubation of bovine sample disks with saliva-mcm (mucine containing medium plus 1% sucrose) at 37° C. • 2. Fresh medium (MCM with different amino acids) for 2-hour incubation at 37° C. • 3. Fresh medium (MCM with different amino acids) for storage over night at 37° C. • 4. Second Day: Fresh medium (MCM with different amino acids) after 22 and 24 hours. • 5. Samples were taken after 26 hours biofilm growth for measurements of lactic acid release and biomass evaluation.
To determine the activity of the grown biofilm, the production of lactic acid in the supernatant (0.75 ml PBS-solution with 5% sucrose per each sample disc) is measured by using the Lactic acid dehydrogenase (LDH)—Nicotinamid-adenin-dinukleotid (NAD)—Phenazine Methosulphate (PMS)—Thiazolyl blue tetrazolium bromide (MTT)—enzyme assay. To guarantee that only freshly produced lactic acid is determined, the samples are washed (in three steps, each lasting 30 sec) in 1.5 ml PBS-solution. The production of lactic acid is evaluated by measuring the lactic acid amount at given points for 30 min. The determination points are: 0 min 15 min and 30 min. For each reading point a sample of 50 μl is taken out of each well. The lactic acid amount at each reading point is determined by using the enzyme assay described above. Lactic acid amount is calculated according to the lactic acid calibration curve.
(§4) In this experiment, the MCM human derived saliva biofilm system was used. The biofilms were grown for 26 hours in continuous presence of sucrose and different amino acids.

[2] = tested on: human saliva derived microcosm biofilm; test: Mass of biofilm (wet biomass) grown in MCM human derived saliva biofilm system; type: cell-based; conditions: read-out: Biomass [% from control]; for activity at 2.7 %: Example 1, amino acid 2.7 wt. %
Experimental: as §1, §2, §3
The mass of biofilm was determined as follows: Filter papers are put into 1.5 ml-reaction tubes and were labelled and weighted. The biofilm, that was grown on the enamel disks is carefully wiped off with filter paper. The filter paper containing the wet biofilms were placed back into the respective reaction tube and re-weighted. The wet biomass is calculated from the difference in weight.
as §4

[3] = Homo sapiens, Example 1, 26 h biofilm growth, continuous presence of sucrose and amino acid, read-out: Lactic Acid Release after 30 min [% from control]
[4] = Homo sapiens, Example 1, amino acid 4.0 wt. %, 26 h biofilm growth, continuous presence of sucrose and amino acid, read-out: Lactic Acid Release after 30 min [% from control]
[5] = Example 1, amino acid 4.0 wt. %, 26 h biofilm growth
[6] = Homo sapiens, Example 1, amino acid 8.0 wt. %, 26 h biofilm growth, continuous presence of sucrose and amino acid, read-out: Lactic Acid Release after 30 min [% from control]
[7] = 26 h, Example 1, amino acid 8.0 wt. %, 26 h biofilm growth

Compound: NC(=O)CC[C@H](N)C(=O)O [glutamine, reference compound]
effectiveness for reducing the lactic-acid release of bacteria in a biofilm (in words) [1]: not effective

Compound: N[C@@H](Cc1ccc(O)cc1)C(=O)O [Tyrosine, reference compound]
activity at 0.0095 % ([1]; Homo sapiens, Example 1, amino acid 0.0095 wt. %, 26 h biofilm growth, continuous presence of sucrose and amino acid, read-out: Lactic Acid Release after 30 min [% from control]): 112%
effectiveness for reducing the lactic-acid release of bacteria in a biofilm (in words) [1]: not effective
activity at 0.0095 % ([2]; Example 1, amino acid 0.0095 wt. %, 26 h biofilm growth): 95.3%

Compound: O=C(O)[C@@H]1CCCN1 [Proline, reference compound]
activity at 8 % [1, 6]: 74.7%
effectiveness for reducing the lactic-acid release of bacteria in a biofilm (in words) [1]: not effective
activity at 8 % [2, 7]: 110%

Compound: N[C@@H](Cc1ccccc1)C(=O)O [Phenylalanine]
activity at 0.5 % ([1]; Homo sapiens, 0.5 h, Example 3, phenylalanine 0.5 wt. %, continuous presence with sucrose, read-out: Lactic Acid Release after 30 min [% from control]): 45.9%
activity at 1 % ([1]; Homo sapiens, 0.5 h, Example 3, phenylalanine 1.0 wt. %, continuous presence with sucrose, read-out: Lactic Acid Release after 30 min [% from control]): 32.1%
activity at 1.5 % ([1]; Homo sapiens, 0.5 h, Example 3, phenylalanine 1.5 wt. %, continuous presence with sucrose, read-out: Lactic Acid Release after 30 min [% from control]): 16.7%
activity at 2 % ([1]; Homo sapiens, 0.5 h, Example 3, phenylalanine 2.0 wt. %, continuous presence with sucrose, read-out: Lactic Acid Release after 30 min [% from control]): 12.1%
activity at 2.5 % ([1]; Homo sapiens, 0.5 h, Example 3, phenylalanine 2.5 wt. %, continuous presence with sucrose, read-out: Lactic Acid Release after 30 min [% from control]): 3.5%
activity at 2.7 % [1, 3]: 8.6%
effectiveness for reducing the lactic-acid release of bacteria in a biofilm (in words) [1]: useful
activity at 0.5 % ([2]; 26 h, Example 3, phenylalanine 0.5 wt. %): 181%
activity at 1 % ([2]; 26 h, Example 3, phenylalanine 1.0 wt. %): 124%
activity at 1.5 % ([2]; 26 h, Example 3, phenylalanine 1.5 wt. %): 92.7%
activity at 2 % ([2]; 26 h, Example 3, phenylalanine 2.0 wt. %): 96.5%
activity at 2.5 % ([2]; 26 h, Example 3, phenylalanine 2.5 wt. %): 66.9%
activity at 2.7 % ([2]; 26 h biofilm growth): 136%

Compound: N[C@@H](CCC(=O)O)C(=O)O [Glutamic acid, reference compound]
activity at 0.215 % ([1]; Homo sapiens, Example 1, amino acid 0.215 wt. %, 26 h biofilm growth, continuous presence of sucrose and amino acid, read-out: Lactic Acid Release after 30 min [% from control]): 90.4%
activity at 0.215 % ([2]; Example 1, amino acid 0.215 wt. %, 26 h biofilm growth): 80.2%

Compound: N[C@@H](CS)C(=O)O [Cysteine, reference compound]
activity at 0.625 % ([1]; Homo sapiens, Example 1, amino acid 0.625 wt. %, 26 h biofilm growth, continuous presence of sucrose and amino acid, read-out: Lactic Acid Release after 30 min [% from control]): 85.8%
activity at 0.625 % ([2]; Example 1, amino acid 0.625 wt. %, 26 h biofilm growth): 56.2%

Compound: N[C@@H](Cc1c[nH]cn1)C(=O)O [Histidine, reference compound]
activity at 3.8 % ([1]; Homo sapiens, Example 1, amino acid 3.8 wt. %, 26 h biofilm growth, continuous presence of sucrose and amino acid, read-out: Lactic Acid Release after 30 min [% from control]): 150%
effectiveness for reducing the lactic-acid release of bacteria in a biofilm (in words) [1]: not effective
activity at 3.8 % ([2]; Example 1, amino acid 3.8 wt. %, 26 h biofilm growth): 106%

Compound: NC(=O)C[C@H](N)C(=O)O [Asparagine, reference compound]
activity at 0.5 % ([1]; Homo sapiens, Example 1, amino acid 0.5 wt. %, 26 h biofilm growth, continuous presence of sucrose and amino acid, read-out: Lactic Acid Release after 30 min [% from control]): 94.7%
activity at 0.5 % ([2]; Example 1, amino acid 0.5 wt. %, 26 h biofilm growth): 102%

Compound: N=C(N)NCCC[C@H](N)C(=O)O [Arginine, reference compound]
effectiveness for reducing the lactic-acid release of bacteria in a biofilm (in words) [1]: not effective
activity at 8 % ([2]; 26 h): 247%

Compound: N[C@@H](Cc1c[nH]c2ccccc12)C(=O)O [Tryptophan]
effectiveness for reducing the lactic-acid release of bacteria in a biofilm (in words) [1]: useful
activity at 0.25 % ([2]; 26 h): 181%

Compound: C[C@H](N)C(=O)O [Alanine, reference compound]
activity at 4 % [1, 4]: 99.7%
activity at 4 % [2, 5]: 141%

Compound: NCCCC[C@H](N)C(=O)O [Lysine]
effectiveness for reducing the lactic-acid release of bacteria in a biofilm (in words) [1]: useful
activity at 8 % ([2]; 26 h): 87.8%

Now from value to compound, other results behind:

effectiveness for reducing the lactic-acid release of bacteria in a biofilm (in words) [1]: useful
Compound: N[C@@H](CO)C(=O)O [Serine]
activity at 2.7 % [1, 3]: 11.8%
activity at 2.7 % ([2]; 26 h biofilm growth): 84.6%

effectiveness for reducing the lactic-acid release of bacteria in a biofilm (in words) [1]: useful
Compound: CC[C@H](C)[C@H](N)C(=O)O [Isoleucine]
activity at 4 % [1, 4]: 21.9%
activity at 4 % [2, 5]: 104%

effectiveness for reducing the lactic-acid release of bacteria in a biofilm (in words) [1]: useful
Compound: CSCC[C@H](N)C(=O)O [Methionine]
activity at 4.8 % ([1]; Homo sapiens, Example 1, amino acid 4.8 wt. %, 26 h biofilm growth, continuous presence of sucrose and amino acid, read-out: Lactic Acid Release after 30 min [% from control]): 26.9%
activity at 4.8 % ([2]; 26 h, Example 1, amino acid 4.8 wt. %, 26 h biofilm growth): 84.9%

effectiveness for reducing the lactic-acid release of bacteria in a biofilm (in words) [1]: not effective
Compound: N[C@@H](CC(=O)O)C(=O)O [Aspartic acid, reference compound]
activity at 0.1125 % ([1]; Homo sapiens, Example 1, amino acid 0.1125 wt. %, 26 h biofilm growth, continuous presence of sucrose and amino acid, read-out: Lactic Acid Release after 30 min [% from control]): 101%
activity at 0.1125 % ([2]; Example 1, amino acid 0.1125 wt. %, 26 h biofilm growth): 82.1%

effectiveness for reducing the lactic-acid release of bacteria in a biofilm (in words) [1]: useful
Compound: C[C@@H](O)[C@H](N)C(=O)O [Threonine]
activity at 8 % [1, 6]: 54.6%
activity at 8 % ([2]; Example 1, amino acid 8.0 wt. %, 26 h biofilm growth): 190%

effectiveness for reducing the lactic-acid release of bacteria in a biofilm (in words) [1]: useful
Compound: CC(C)[C@H](N)C(=O)O [Valine]
activity at 5 % ([1]; Homo sapiens, Example 1, amino acid 5.0 wt. %, 26 h biofilm growth, continuous presence of sucrose and amino acid, read-out: Lactic Acid Release after 30 min [% from control]): 42.1%
activity at 5 % ([2]; Example 1, amino acid 5.0 wt. %, 26 h biofilm growth): 209%

effectiveness for reducing the lactic-acid release of bacteria in a biofilm (in words) [1]: useful
Compound: CC(C)C[C@H](N)C(=O)O [Leucine]
activity at 2.7 % [1, 3]: 36.7%
activity at 2.7 % ([2]; 26 h biofilm growth): 85.9%

effectiveness for reducing the lactic-acid release of bacteria in a biofilm (in words) [1]: useful
Compound: NCC(=O)O [Glycine]
activity at 0.5 % ([1]; Homo sapiens, 0.5 h, Example 2, glycine 0.5 wt. %, continuous presence with sucrose, read-out: Lactic Acid Release after 30 min [% from control]): 97.5%
activity at 1 % ([1]; Homo sapiens, 0.5 h, Example 2, glycine 1.0 wt. %, continuous presence with sucrose, read-out: Lactic Acid Release after 30 min [% from control]): 51.6%
activity at 2 % ([1]; Homo sapiens, 0.5 h, Example 2, glycine 2.0 wt. %, continuous presence with sucrose, read-out: Lactic Acid Release after 30 min [% from control]): 32.3%
activity at 4 % ([1]; Homo sapiens, 0.5 h, Example 2, glycine 4.0 wt. %, continuous presence with sucrose, read-out: Lactic Acid Release after 30 min [% from control]): 1.6%
activity at 8 % ([1]; Homo sapiens, 0.5 h, Example 2, glycine 8.0 wt. %, continuous presence with sucrose, read-out: Lactic Acid Release after 30 min [% from control]): 5.6%
activity at 8 % [1, 6]: 5.7%
activity at 8 % [2, 7]: 77.2%
activity at 0.5 % ([2]; 26 h, Example 2, glycine 0.5 wt. %): 143%
activity at 1 % ([2]; 26 h, Example 2, glycine 1.0 wt. %): 146%
activity at 2 % ([2]; 26 h, Example 2, glycine 2.0 wt. %): 96.7%
activity at 4 % ([2]; 26 h, Example 2, glycine 4.0 wt. %): 56.2%
activity at 8 % ([2]; 26 h, Example 2, glycine 8.0 wt. %): 42.2%
